Experimental data reported in article PMC9386811 (ACS Omega, 2022).

target: alpha-glucosidase from Saccharomyces cerevisiae (Baker's yeast) (Saccharomyces cerevisiae, UniProt P53341); experiment: In vitro α-glucosidase inhibitory activity; type: biochemical
Sequence (P53341 whole entry): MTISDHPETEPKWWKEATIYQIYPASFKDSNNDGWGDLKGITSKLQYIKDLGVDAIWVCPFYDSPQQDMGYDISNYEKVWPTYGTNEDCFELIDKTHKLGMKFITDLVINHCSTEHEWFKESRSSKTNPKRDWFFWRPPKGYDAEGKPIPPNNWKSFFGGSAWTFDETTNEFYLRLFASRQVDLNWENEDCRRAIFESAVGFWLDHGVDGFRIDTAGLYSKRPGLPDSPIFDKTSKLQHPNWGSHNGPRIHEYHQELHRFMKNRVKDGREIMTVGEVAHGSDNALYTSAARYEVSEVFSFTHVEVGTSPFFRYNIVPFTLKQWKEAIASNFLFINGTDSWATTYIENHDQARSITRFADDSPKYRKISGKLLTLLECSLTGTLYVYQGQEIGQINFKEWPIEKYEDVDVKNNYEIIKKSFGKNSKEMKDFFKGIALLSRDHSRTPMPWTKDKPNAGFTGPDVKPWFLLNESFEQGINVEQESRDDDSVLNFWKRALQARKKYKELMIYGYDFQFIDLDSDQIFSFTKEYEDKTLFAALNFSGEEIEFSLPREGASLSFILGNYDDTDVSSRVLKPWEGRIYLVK

IC50	SMILES
24.1 ± 0.3 µM	CCCCCCSc1nc2ccccc2n1CC(=O)NN1C(=O)CSC1c1cccc(OC)c1O (stereo not drawn) [Compound 11, 2-[2-(Hexylthio)-1H-benzo[d]imidazole-1-yl]-N-[-2-(2-hydroxy-3-methoxyphenyl)-4-oxothiazolidin-3-yl]acetamide]
5.22 ± 0.14 µM	CCCCCCSc1nc2ccccc2n1CC(=O)NN1C(=O)CSC1c1ccc([N+](=O)[O-])cc1 (stereo not drawn) [Compound 5, 2-[2-(Hexylthio)-1H-benzo[d]imidazole-1-yl]-N-[2-(4-nitrophenyl)-4-oxothiazolidin-3-yl]acetamide]
5.69 ± 0.1 µM	CCCCCCSc1nc2ccccc2n1CC(=O)NN1C(=O)CSC1c1ccc(C=O)cc1 (stereo not drawn) [Compound 8, 2-[2-(Hexylthio)-1H-benzo[d]imidazole-1-yl]-N-[2-(4-formylphenyl)-4-oxothiazolidin-3-yl]acetamide]
26.38 ± 0.18 µM	CCCCCCSc1nc2ccccc2n1CC(=O)NN1C(=O)CSC1c1ccc(F)cc1 (stereo not drawn) [Compound 23, 2-[2-(Hexylthio)-1H-benzo[d]imidazole-1-yl]-N-[2-(4-fluorophenyl)-4-oxothiazolidin-3-yl]acetamide]
63.68 ± 0.52 µM	CCCCCCSc1nc2ccccc2n1CC(=O)NN1C(=O)CSC1c1ccc(OC)cc1 (stereo not drawn) [Compound 17, 2-[2-(Hexylthio)-1H-benzo[d]imidazole-1-yl]-N-[2-(4-methoxyphenyl)-4-oxothiazolidin-3-yl]acetamide]
23.7 ± 0.25 µM	CCCCCCSc1nc2ccccc2n1CC(=O)NN1C(=O)CSC1c1ccc(C)cc1 (stereo not drawn) [Compound 24, 2-[2-(Hexylthio)-1H-benzo[d]imidazole-1-yl)-N-[4-oxo-2-(p-tolyl)thiazolidin-3-yl]acetamide]
54.4 ± 0.65 µM	CCCCCCSc1nc2ccccc2n1CC(=O)NN1C(=O)CSC1c1cccs1 (stereo not drawn) [Compound 21, 2-[2-(Hexylthio)-1H-benzo[d]imidazole-1-yl]-N-[4-oxo-2-(thiophen-2-yl)-thiazolidin-3-yl]acetamide]

More lines, now with the values behind:

SMILES	IC50
CCCCCCSc1nc2ccccc2n1CC(=O)NN1C(=O)CSC1c1ccccc1OC (stereo not drawn) [Compound 15, 2-[2-(Hexylthio)-1H-benzo[d]imidazole-1-yl]-N-[2-(2-methoxyphenyl)-4-oxothiazolidin-3-yl]acetamide]	89.28 ± 0.52 µM
CCCCCCSc1nc2ccccc2n1CC(=O)NN1C(=O)CSC1c1ccc2ccccc2c1 (stereo not drawn) [Compound 22, 2-[2-(Hexylthio)-1H-benzo[d]imidazole-1-yl]-N-[2-(naphthalen-2-yl)-4-oxothiazolidin-3-yl]acetamide]	41 ± 0.36 µM
CCCCCCSc1nc2ccccc2n1CC(=O)NN1C(=O)CSC1c1ccc(Cl)cc1Cl (stereo not drawn) [Compound 12, 2-[2-(Hexylthio)-1H-benzo[d]imidazole-1-yl]-N-[2-(2,4-dichlorophenyl)-4-oxothiazolidin-3-yl]acetamide]	33.4 ± 0.38 µM
CCCCCCSc1nc2ccccc2n1CC(=O)NN1C(=O)CSC1c1ccc(O)c(OC)c1 (stereo not drawn) [Compound 14, 2-[2-(Hexylthio)-1H-benzo[d]imidazole-1-yl]-N-[2-(4-hydroxy-3-methoxyphenyl)-4-oxothiazolidin-3-yl]acetamide]	10.2 ± 0.12 µM
CCCCCCSc1nc2ccccc2n1CC(=O)NN1C(=O)CSC1c1ccc(C)o1 (stereo not drawn) [Compound 19, 2-[2-(Hexylthio)-1H-benzo[d]imidazole-1-yl]-N-[2-(5-methylfuran-2-yl)-4-oxothiazolidin-3-yl]acetamide]	39.06 ± 0.27 µM
